Reference: patent publication US12059399B2, “Methods for alleviating kidney disease and fibrosis of organ” (Getwing Biotechnology Medical Co., Ltd, priority 2021, dated 2024)

Assays:
[1] = system: mice subjected to UUO surgery; assay: Biochemical analysis of blood and urine samples of mice 7 days after unilateral ureter obstruction (UUO) surgery; format: in vivo, Male C57BL/6J mice
Method: Male C57BL/6J mice (having a weight of about 25 g) purchased from the National Laboratory Animal Center (Taipei, Taiwan) were kept in an animal room under the following laboratory conditions: a temperature of about 24° C. and a 12-hour light/12-hour dark cycle. Diets and water were provided ad libitum for all of the experimental animals.
(§1) The UUO surgery was performed in accordance with the Guidelines for Care and Use of Laboratory Animals. Specifically, during the UUO surgery, the respective mouse was anesthetized through intraperitoneal injection of pentobarbital (Manufacturer: Merck KGaA, Darmstadt, Germany; Catalogue no.: P3761) at a dose of about 60 mg per kg of body weight. The skin tissue and the subcutaneous muscle layer at the left side of the abdominal midline were incised, so that the left kidney was exposed and the left ureter was identified and dissociated. The left ureter was dissected out with scissors and ligated with silk surgical sutures (size: 4-0) at an upstream location approximately 1 cm from the renal hilum and at a downstream location approximately 1 cm from the renal hilum. After confirmation that no bleeding and no urine leakage occurred, the incised subcutaneous muscle layer and skin tissue were stitched.
(§2) The male C57BL/6J mice described in section 2 of the “General Experimental Materials” were randomly divided into 5 groups, namely, a sham-operated group (SOG), a pathological control groups (PCG), and three experimental groups (i.e., experimental group 1 (EG1), experimental group 2 (EG2), and experimental group 3 (EG3)) (n=3 per group). After being raised in the animal room for one week, the mice in the PCG and the EG1 to EG3 were subjected to the UUO surgery as described in section 1 of the “General Experimental Procedures”. The mice in the SOG were subjected to a similar surgical procedure, except that the ureter of the mice in the SOG was not obstructed, i.e., the left ureter was not dissected out and ligated. After surgery, during the entire experimental process which lasted 7 days, all the mice were placed in iron cages.
(§3) The mice of the EG1 to EG3 were respectively administered, via oral gavage, with the ferrous amino acid chelate described in section 1 of the “General Experimental Materials” at a dose of 5 mg/kg, 125 mg/kg and 250 mg/kg of body weight once daily (in the morning) for 7 days. At the end of Day 7, a blood sample and a urine sample, each in a volume of 0.2 mL, were obtained from each mouse in the EG1 to EG3. The mice of the SOG and the mice of the PCG received no treatment (i.e., 0 mg/kg of ferrous amino acid chelate), and at the end of Day 7, a blood sample and a urine sample, each in a volume of 0.2 mL, were obtained from each mouse.
The blood sample of the respective mouse was subjected to measurements of alanine transaminase (ALT), aspartate transaminase (AST), blood urea nitrogen (BUN) and creatinine levels for evaluation of kidney health. The urine sample of the respective mouse was subjected to quantification of urea nitrogen and creatinine levels for evaluation of kidney health. For each of the aforesaid parameters, the differences between each group were analyzed according to the procedures as described in the section 2 of the “General Experimental Procedures”.

[2] = system: left obstructed kidney of mice subjected to UUO surgery; assay: Histological analysis of renal tissues from the left obstructed kidney after UUO surgery (H&E, Masson's Trichrome, α-SMA and vimentin staining); format: in vivo, Male C57BL/6J mice
Method: as §1, §2, §3
The renal tissues were extracted from the left obstructed kidney of a selected mouse in each group. Fixation was conducted using 10% formalin, and dehydration was conducted using a series of graded alcohols (lower to higher concentrations) and xylene, followed by embedding in paraffin. A tissue section of […] was obtained and placed on a slide, followed by heating in an oven at […] overnight for melting the paraffin. Xylene was used to remove the melted paraffin, and rehydration was conducted with graded alcohols (higher to lower concentrations). Endogenous peroxidase was removed using 1% H2O2, followed by washing with a phosphate-buffered saline (PBS) buffer, so as to increase the permeability. After incubating the tissue section with fetal bovine serum (FBS) to prevent binding of some non-specific antigens, water was removed by suction.
For staining of α-smooth muscle actin (SMA), a primary antibody against α-smooth muscle actin (SMA)(α-SMA) (Manufacturer: Abcam PLC; Catalogue no.: ab5694) with a dilution ratio of 1:400 was added to the tissue section at room temperature, and the reaction was allowed to proceed for 2 hours at room temperature. Thereafter, washing was conducted twice with PBS to remove unbound primary antibodies. A Polymer-HRP secondary antibody (Manufacturer: Golden Bridge International, Inc., USA) was added. One hour later after the reaction, washing was conducted twice with PBS. […]

[3] = system: fibrous proteins (α-SMA, collagen I fibers, and vimentin) in kidney tissues; assay: Protein expression analysis (Western blot) of renal tissues from the left obstructed kidney after UUO surgery; format: in vivo, Male C57BL/6J mice; conditions: 7 days, vs PCG
Method: as §1, §2, §3
The renal tissues were extracted from the left obstructed kidney of a selected mouse in each group, and then lysed with NETN lysis buffer (20 mM Tris, 150 mM NaCl, 1 mM EDTA, and 0.5% NP-40) on ice. The resultant cell lysates were centrifuged, and the supernatants were collected to serve as total protein samples.
Protein samples in equal amounts (i.e., 20 μg) as determined by Bradford assay were resolved in 8% or 10% sodium dodecyl sulfate-polyacrylamide (SDS-PAGE) gels, and then subjected to immunoblot analysis. To be specific, the separated proteins were transferred to Immobilon®-P polyvinylidene difluoride (PVDF) membranes (Manufacturer: Merck Millipore, NJ, USA). The blotted PVDF membranes thus obtained were blocked with Tris-buffered saline (TBS) and 0.1% (vol/vol) polysorbate 20 (also known as Tween 20) containing 5% non-fat dry milk for 1 hour at room temperature, followed by washing with TBST 3 times, each time for […], and then probing with the indicated primary antibodies overnight. The probed membranes were washed with a TBST buffer (a mixture of TBS and polysorbate 20) 3 times, each time for 5 minutes, and were then incubated with secondary antibodies, such as a horseradish peroxidase (HRP)-conjugated anti-mouse antibody or an HRP-conjugated anti-rabbit antibody for 60 minutes at room temperature. HRP was detected using ECL detection reagents (Merck Millipore, Darmstadt, Germany), and band intensity was determined by ImageQuant™ LAS-4000 luminescence image analyzer (GE Healthcare).
Anti-glyceraldehyde 3-phosphate dehydrogenase (GAPDH) was used as a loading control.

HK-2 cells [4] = assay: Cytotoxicity analysis (MTT) in HK-2 cells; format: cell-based, Human; conditions: EG1 to EG6: 50, 100, 250, 500, 750 and 1000 μg/mL; 24 hours; vs control group
Method: (§4) Human kidney proximal tubular epithelial cell line HK-2 (from normal adult human renal cortex) used in the following experiments was obtained from, the Bioresource Collection and Research Center (BCRC) of the Food industry Research and Development Institute (FIRDI) (No. 331, Shih-Pin Rd., Hsinchu City 300, Taiwan).
(§5) The HK-2 cells were incubated in 10-cm Petri dishes, each of which contained Dulbecco's modified Eagle's medium/Ham's Nutrient Mixture F-12 (DMEM/F12) (Manufacturer: Thermo Fisher Scientific, WA, USA; Catalogue no.: 12500062) supplemented with HyClone™ 1% (v/v) penicillin-steptomycin (Manufacturer: Cytiva; Catalogue no.: SC30010). […]
First, the HK-2 cells described in section 3 of the General Experimental Materials were seeded at a concentration of 2×10^4 cells per well into wells of 6-well culture plates each containing DMEM/F-12 supplemented with 1% (v/v) penicillin-steptomycin, and then were divided into 7 groups, namely, a control group (CG), and six experimental groups (i.e., experimental groups 1 to 6 (EG1 to EG6)), followed by cultivation in an incubator with culture conditions set at 37° C. and 5% CO2 for 24 hours. […] Subsequently, the medium in each group was collected and subjected to light absorbance measurement at a wavelength of 570 nm (OD570) using a spectrophotometer. […]

HK-2 cells [5] = assay: Migration of HK-2 cells into the cell-free wound area, induced by TGF-β1 (EMT); format: cell-based, Human; conditions: 100 μg/mL with 50 ng/mL TGF-β1; 24 hours; vs TGF-β1 alone (comparative group 1)
Method: as §4
as §5, with “SC30010). Subsequently, cultivation was conducted in an incubator with culture conditions set at 37° C. and 5% CO2. Medium change was performed every 2 days.” for “SC30010).”
First, the HK-2 cells described in section 3 of the General Experimental Materials were seeded at a concentration of 4×10^4 cells per well into wells of 6-well culture plates each containing DMEM supplemented with 1% (v/v) penicillin-steptomycin, and then were divided into 4 groups, namely, a control group, a comparative group 1, a comparative group 2, and an experimental group, followed by cultivation until reaching 90% of confluence. […] Cell migration was assessed at the 0 hour and 24th hour using an inverted optical microscope.

[6] = EG1 to EG3: 5, 125 and 250 mg/kg oral gavage once daily for 7 days, between SOG, PCG and EG1 to EG3
[7] = 125 and 250 mg/kg (EG2, EG3) compared with 5 mg/kg (EG1)
[8] = EG1 to EG3: 5, 125 and 250 mg/kg oral, 7 days, vs PCG
[9] = EG1 and EG2: 5 and 125 mg/kg oral

ferrous glycinate chelate [ferrous amino acid chelate]
blood urea nitrogen level ([1]; EG1 to EG3: 5, 125 and 250 mg/kg oral gavage once daily for 7 days, UUO mice, vs PCG): significantly reduced compared to that in the PCG | urine urea nitrogen level ([1]; EG1 to EG3: 5, 125 and 250 mg/kg oral gavage once daily for 7 days, among PCG, EG1, EG2 and EG3): no significant difference | ALT level in the blood sample [1, 6]: no significant difference | AST level in the blood sample [1, 6]: no significant difference | creatinine level in the blood sample [1, 6]: no significant difference | urine creatinine level ([1]; EG2 and EG3: 125 and 250 mg/kg oral gavage once daily for 7 days, UUO mice, vs PCG): significantly reduced compared to that in the PCG | degree of reduction of interstitial deposition of collagen fibers and muscle fibers [2, 7]: greater in EG2 and EG3 compared with those in EG1 | degree of reduction of tubular dilation [2, 7]: greater in EG2 and EG3 compared with those in EG1 | amount of actin fibers (α-SMA staining) [2, 8]: significantly reduced compared with those in the PCG | interstitial deposition of collagen fibers and muscle fibers (Masson's Trichrome staining) [2, 8]: significantly reduced compared with those in the PCG | number of cells undergoing fibrosis (vimentin staining) [2, 8]: significantly reduced compared with those in the PCG | tubular dilation (H & E staining) [2, 8]: significantly reduced compared with those in the PCG | expression of collagen I (Western blot) [3, 9]: no significant difference | expression of α-SMA (Western blot) [3, 9]: no significant difference | expression level of vimentin (Western blot) ([3]; EG2 and EG3: 125 and 250 mg/kg oral): significant reduction in expression level | expression of collagen I (Western blot) ([3]; EG3: 250 mg/kg oral): significantly reduced | expression of α-SMA (Western blot) ([3]; EG3: 250 mg/kg oral): significantly reduced | expression level of vimentin (Western blot) ([3]; from EG1 to EG3: 5, 125, 250 mg/kg oral): gradually reduced from EG1 to EG3 | viability of the HK-2 cells (cell viability rate, MTT) (HK-2 cells [4]): not significantly affected | migration of HK-2 cells into the cell-free wound area (HK-2 cells [5]): decreased capability to migrate into the cell-free wound area
